The values below are quoted from earlier work in patent US5021421A, “2-(1-Piperazinyl)-4-phenylcycloalkanopyridine derivatives, processes for the production thereof, and pharmaceutical composition containing the same” (Dainippon Pharmaceutical Co., Ltd., priority 1989, dated 1991).

The conditions of the data set: U.S. Pat. No. 4,831,034; cited from earlier work.

As for `Cc1ccc(CN2CCN(c3cc(-c4ccccc4)ccn3)CC2)cc1` [2-[4-(4-methylbenzyl)-1-piperazinyl]-4-phenylpyridine], the “activity as an anti-psychotic drug or as a neuroleptic drug” value was “weak activity”.
